The test system of assay [1] is Eotaxin-3 (CCL26) release in human whole blood stimulated with IL-4. Description: Human Whole Blood Eotaxin-3 Assay (IL-4 stimulated, inhibition of eotaxin-3 release). The assay is classed as cell-based. Conditions: Homo sapiens, EC50 provided for test compounds with >80% Emax, geometric mean across assay runs and batches. The gist of the method:
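Lithium-heparin human whole blood preincubated 2 h at 37 °C with compounds (4-fold serial dilution, triplicate, 0.5% DMSO final), then stimulated with 400 pM IL-4 for 48 h. Eotaxin-3 (CCL26) in supernatant quantified by MSD immunoassay.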

For assay [2], the target named is T1, STAT6 (endogenous, HiBiT-tagged) in HeLa LgBiT clone 4.14 cells (Homo sapiens, UniProt P42226).
T1 construct: These cells express endogenous STAT6; host or cells: HeLa LgBiT clone 4.14
T1 sequence (P42226 1-847): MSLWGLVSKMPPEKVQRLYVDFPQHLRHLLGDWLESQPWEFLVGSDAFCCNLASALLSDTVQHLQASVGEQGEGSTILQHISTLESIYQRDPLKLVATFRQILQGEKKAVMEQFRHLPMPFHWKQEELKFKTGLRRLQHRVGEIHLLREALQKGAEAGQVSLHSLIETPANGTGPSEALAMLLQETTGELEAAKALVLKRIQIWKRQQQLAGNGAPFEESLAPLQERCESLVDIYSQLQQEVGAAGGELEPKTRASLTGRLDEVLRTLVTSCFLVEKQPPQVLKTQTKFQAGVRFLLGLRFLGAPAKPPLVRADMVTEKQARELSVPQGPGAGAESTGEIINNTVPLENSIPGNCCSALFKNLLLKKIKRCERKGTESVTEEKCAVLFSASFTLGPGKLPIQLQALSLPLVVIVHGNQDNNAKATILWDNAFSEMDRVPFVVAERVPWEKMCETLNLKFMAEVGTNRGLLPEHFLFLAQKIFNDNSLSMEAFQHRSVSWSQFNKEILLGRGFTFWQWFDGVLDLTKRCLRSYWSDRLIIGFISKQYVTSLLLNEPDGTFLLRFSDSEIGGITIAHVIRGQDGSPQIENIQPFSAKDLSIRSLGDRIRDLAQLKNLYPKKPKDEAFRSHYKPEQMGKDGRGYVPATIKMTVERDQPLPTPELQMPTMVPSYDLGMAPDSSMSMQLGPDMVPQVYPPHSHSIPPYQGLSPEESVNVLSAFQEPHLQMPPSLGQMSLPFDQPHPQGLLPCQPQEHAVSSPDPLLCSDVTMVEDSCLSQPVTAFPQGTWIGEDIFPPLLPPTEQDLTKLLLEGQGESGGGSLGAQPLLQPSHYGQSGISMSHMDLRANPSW
Description: STAT6 Degrader Assay (HiBiT based, HeLa LgBiT clone 4.14 cells, luminescence, DC50). Conditions: geometric mean; for Emax: Emax provided for test compounds with <80% Emax (and 2c15), read-out: STAT6 degradation Emax; for DC50: DC50 provided for test compounds with >80% Emax, read-out: STAT6 degradation DC50. The format is cell-based. The gist of the method:
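Remaining STAT6 is read as NanoBiT luminescence after 0.5 h with Nano-Glo, in HeLa LgBiT clone 4.14 cells expressing endogenous HiBiT-tagged STAT6, following 4-24 h compound incubation at 37 °C. Full degradation is set by 50 µM terfenadine, which kills the cells; degradation plotted against log compound concentration.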

The term EC50 denotes the midpoint of the concentration-response curve. Read a low EC50 as greater potency. A word on the Emax: it is the size of the effect at its maximum, as opposed to the concentration needed. The molecule `C[C@@H](c1cc2c(-c3ccc(N)nc3)ccnc2n1C)N1CCC(c2ccc(C(=O)N3CCC(CN4CCN(c5ncc(NC6CCC(=O)NC6=O)cc5F)CC4)CC3)cc2)CC1` (stereo partly drawn) [Example 2n10, 3-((6-(4-((1-(4-(1-((S)-1-(4-(6-aminopyridin-3-yl)-1-methyl-1H-pyrrolo[2,3-b]pyridin-2-yl)ethyl)-piperidin-4-yl)benzoyl)piperidin-4-yl)methyl)piperazin-1-yl)-5-fluoropyridin-3-yl)amino)-piperidine-2,6-dione] gave an EC50 in assay [1] of 131 nM. For the same molecule, the Emax in assay [2] was 70 to 80%.
One may read the DC50 as the midpoint of the concentration-degradation curve. With `C[C@@H](c1cc2c(-c3ccc(N)nc3)ccnc2n1C)N1CCC(c2ccc(C(=O)N3CCC(CN4CCN(c5ccc(NC6CCC(=O)NC6=O)cc5F)CC4)CC3)cc2)CC1` (stereo partly drawn) [Example 2c14, 3-((4-(4-((1-(4-(1-((S)-1-(4-(6-aminopyridin-3-yl)-1-methyl-1H-pyrrolo[2,3-b]pyridin-2-yl)ethyl)-piperidin-4-yl)benzoyl)piperidin-4-yl)methyl)piperazin-1-yl)-3-fluorophenyl)amino)piperidine-2,6-dione], the response in assay [1] was half-maximal at 65 nM (EC50). Besides, the DC50 in assay [2] was found to be 6.6 nM.
The like results for `C[C@@H](c1cc2c(-c3ccc(N)nc3)ccnc2n1C)N1CCC(c2ccc(C(=O)N3CCn4nc(CN5CCC(c6ccc(N[C@@H]7CCC(=O)NC7=O)cc6F)CC5)cc4C3)cc2)CC1` (single isomer, unassigned) [Example 2q10] were, in that order, 3.2 nM and 1 nM.
Turning to `C[C@@H](c1cc2c(-c3ncc(N)cc3F)ccnc2n1C)N1CCC(c2ccc(C(=O)N3CCC(CN4CCN(c5ccc(NC6CCC(=O)NC6=O)cc5F)CC4)CC3)cc2)CC1` (stereo partly drawn) [Example 2c30, 3-((4-(4-((1-(4-(1-((S)-1-(4-(5-amino-3-fluoropyridin-2-yl)-1-methyl-1H-pyrrolo[2,3-b]pyridin-2-yl)ethyl)piperidin-4-yl)benzoyl)piperidin-4-yl)methyl)piperazin-1-yl)-3-fluorophenyl)-amino)piperidine-2,6-dione], the EC50 in assay [1] turned out to be 507 nM. Also, the Emax in assay [2] fell in the range of 30 to 40%.
In the case of `C[C@@H](c1cc2c(-c3ccc(N)nc3)ccnc2n1C)N1CCC(c2ccc(C(=O)N3CCn4nc(CN5CCN(c6ncc(NC7CCC(=O)NC7=O)cc6F)CC5)cc4C3)cc2)CC1` (stereo partly drawn) [Example 2q14, 3-((6-(4-((5-(4-(1-((S)-1-(4-(6-aminopyridin-3-yl)-1-methyl-1H-pyrrolo[2,3-b]pyridin-2-yl)ethyl)-piperidin-4-yl)benzoyl)-4,5,6,7-tetrahydropyrazolo[1,5-a]pyrazin-2-yl)methyl)piperazin-1-yl)-5-fluoropyridin-3-yl)amino)piperidine-2,6-dione], in assay [1], the EC50 was 86.7 nM. Also, the DC50 in assay [2] amounted to 24.7 nM.
The like results for `C[C@@H](c1cc2c(-c3ccc(N)nc3)ccnc2n1C)N1CCC(c2ccc(C(=O)N3CCC(F)(CN4CCN(c5ccc(NC6CCC(=O)NC6=O)cc5F)CC4)CC3)cc2)CC1` (stereo partly drawn) [Example 2c23, 3-((4-(4-((1-(4-(1-((S)-1-(4-(6-aminopyridin-3-yl)-1-methyl-1H-pyrrolo[2,3-b]pyridin-2-yl)ethyl)-piperidin-4-yl)benzoyl)-4-fluoropiperidin-4-yl)methyl)piperazin-1-yl)-3-fluorophenyl)amino)-piperidine-2,6-dione] were, in that order, 49.2 nM and 9.6 nM.
Turning to `COCc1nc2cc(-c3ccnc4c3cc([C@H](C)N3CCC(c5ccc(C(=O)N6CCC(CN7CCN(c8ccc(N[C@@H]9CCC(=O)NC9=O)cc8F)C[C@H]7C)CC6)cc5)CC3)n4C)ccc2[nH]1` (single isomer, unassigned) [Example 2f13], in assay [1], the response was half-maximal at 15.6 nM (EC50). The DC50 in assay [2] came to 2.5 nM.
In the same order, the values of `Cn1c(CN2CCC(c3ccc(C(=O)N4CCn5nc(CN6CCC(c7ccc(NC8CCC(=O)NC8=O)cc7F)CC6)cc5C4)cc3)CC2)cc2c(-c3ccc4[nH]ncc4c3)ccnc21` (centres unmarked) [Example 2q3, 3-((4-(1-((5-(4-(1-((4-(1H-indazol-5-yl)-1-methyl-1H-pyrrolo[2,3-b]pyridin-2-yl)methyl)-piperidin-4-yl)benzoyl)-4,5,6,7-tetrahydropyrazolo[1,5-a]pyrazin-2-yl)methyl)piperidin-4-yl)-3-fluorophenyl)amino)piperidine-2,6-dione] are 11.3 nM and 2.7 nM.
In the same order, the values of `COCc1nc2cc(-c3ccnc4c3cc([C@H](C)N3CCC(c5ccc(C(=O)N6CCC(CN7CCN(c8ccc(N[C@H]9CCC(=O)NC9=O)cc8F)CC7)CC6)cc5)CC3)n4C)ccc2[nH]1` (single isomer, unassigned) [Example 2c53] are 30.9 nM and 4.7 nM.
`C[C@@H](c1cc2c(-c3cnc(N)c(F)c3)ccnc2n1C)N1CCC(c2ccc(C(=O)N3CCC(CN4CCN(c5ccc(NC6CCC(=O)NC6=O)cc5F)CC4)CC3)cc2)CC1` (stereo partly drawn) [Example 2c24, 3-((4-(4-((1-(4-(1-((S)-1-(4-(6-amino-5-fluoropyridin-3-yl)-1-methyl-1H-pyrrolo[2,3-b]pyridin-2-yl)ethyl)piperidin-4-yl)benzoyl)piperidin-4-yl)methyl)piperazin-1-yl)-3-fluorophenyl)-amino)piperidine-2,6-dione] showed an EC50 in assay [1] of 792 nM. In addition, the 50% degradation concentration (DC50) in assay [2] was 44.7 nM.
For the molecule `C[C@@H](c1cc2c(-c3ccc(N)cn3)ccnc2n1C)N1CCC(c2ccc(C(=O)N3CCC(CN4CCN(c5ccc(NC6CCC(=O)NC6=O)cc5F)CC4)CC3)cc2)CC1` (stereo partly drawn) [Example 2c33, 3-((4-(4-((1-(4-(1-((S)-1-(4-(5-aminopyridin-2-yl)-1-methyl-1H-pyrrolo[2,3-b]pyridin-2-yl)ethyl)-piperidin-4-yl)benzoyl)piperidin-4-yl)methyl)piperazin-1-yl)-3-fluorophenyl)amino)piperidine-2,6-dione], the EC50 in assay [1] was found to be 136 nM. Further, the DC50 in assay [2] was determined as 22.5 nM.
In assay [1], `C[C@@H](c1cc2c(-c3ccc(N)nc3)ccnc2n1C)N1CCC(c2ccc(C(=O)N3CCC(CN4CCN(c5ccc(NC6CCC(=O)NC6=O)c(F)n5)CC4)CC3)cc2)CC1` (stereo partly drawn) [Example 2n9, 3-((6-(4-((1-(4-(1-((S)-1-(4-(6-aminopyridin-3-yl)-1-methyl-1H-pyrrolo[2,3-b]pyridin-2-yl)-ethyl)-piperidin-4-yl)benzoyl)piperidin-4-yl)methyl)piperazin-1-yl)-2-fluoropyridin-3-yl)amino)piperidine-2,6-dione] registered a 50% effective concentration (EC50) of 141 nM. In addition, the Emax in assay [2] was 70 to 80%.
Molecule `COCc1nc2cc(-c3ccnc4c3cc(CN3CCC(c5ccc(C(=O)N6CCn7nc(CN8CCC(c9ccc(NC%10CCC(=O)NC%10=O)cc9F)CC8)cc7C6)cc5)CC3)n4C)ccc2[nH]1` (centres unmarked) [Example 2q7, 3-((3-fluoro-4-(1-((5-(4-(1-((4-(2-(methoxymethyl)-1H-benzo[d]imidazol-5-yl)-1-methyl-1H-pyrrolo[2,3-b]pyridin-2-yl)methyl)piperidin-4-yl)benzoyl)-4,5,6,7-tetrahydropyrazolo[1,5-a]pyrazin-2-yl)-methyl)piperidin-4-yl)phenyl)amino)piperidine-2,6-dione] yielded an EC50 in assay [1] of 2.4 nM. In addition, the DC50 in assay [2] came to 2.6 nM.

These data come from patent US20260014147A1, “STAT6 DEGRADERS” (Gilead Sciences, Inc., priority 2024, published 2026).
